Measurements taken from ChEMBL document CHEMBL1140040, “Synthesis and cytotoxic activity of some novel polycyclic gamma-butyrolactones” (Bioorg Med Chem Lett, 2008).

Legend:
HOP-62 [1] = experiment: Cytotoxicity against human HOP62 cells assessed as age growth inhibition at 10 uM after 48 hrs by sulforhodamine B assay; type: functional; conditions: HOP-62, 48 h, read-out: GI
HOP-62 [2] = experiment: Cytotoxicity against human HOP62 cells assessed as age growth inhibition at 50 uM after 48 hrs by sulforhodamine B assay; type: functional; conditions: HOP-62, 48 h, read-out: GI
SF-295 [3] = experiment: Cytotoxicity against human SF295 cells assessed as age growth inhibition at 50 uM after 48 hrs by sulforhodamine B assay; type: functional; conditions: SF-295, 48 h, read-out: GI
IGROV-1 [4] = experiment: Antiproliferative activity against human IGROV1 cells after 48 hrs by sulforhodamine B assay; type: functional, cell-based; conditions: IGROV-1, 48 h
DU-145 [5] = experiment: Cytotoxicity against human DU145 cells assessed as age growth inhibition at 50 uM after 48 hrs by sulforhodamine B assay; type: functional; conditions: DU-145, 48 h, read-out: GI
HOP-62 [6] = experiment: Cytotoxicity against human HOP62 cells assessed as age growth inhibition at 100 uM after 48 hrs by sulforhodamine B assay; type: functional; conditions: HOP-62, 48 h, read-out: GI
HEp-2 [7] = experiment: Cytotoxicity against human HEP2 cells assessed as age growth inhibition at 50 uM after 48 hrs by sulforhodamine B assay; type: functional; conditions: HEp-2, 48 h, read-out: GI
HCT-15 [8] = experiment: Antiproliferative activity against human HCT15 cells after 48 hrs by sulforhodamine B assay; type: functional, cell-based; conditions: HCT-15, 48 h
SK-OV-3 [9] = experiment: Cytotoxicity against human SKOV3 cells assessed as age growth inhibition at 10 uM after 48 hrs by sulforhodamine B assay; type: functional; conditions: SK-OV-3, 48 h, read-out: GI
SF-295 [10] = experiment: Cytotoxicity against human SF295 cells assessed as age growth inhibition at 100 uM after 48 hrs by sulforhodamine B assay; type: functional; conditions: SF-295, 48 h, read-out: GI
SF-295 [11] = experiment: Cytotoxicity against human SF295 cells assessed as age growth inhibition at 10 uM after 48 hrs by sulforhodamine B assay; type: functional; conditions: SF-295, 48 h, read-out: GI
HEp-2 [12] = experiment: Antiproliferative activity against human HEP2 cells after 48 hrs by sulforhodamine B assay; type: functional, cell-based; conditions: HEp-2, 48 h
HCT-15 [13] = experiment: Cytotoxicity against human HCT15 cells assessed as age growth inhibition at 50 uM after 48 hrs by sulforhodamine B assay; type: functional; conditions: HCT-15, 48 h, read-out: GI
DU-145 [14] = experiment: Cytotoxicity against human DU145 cells assessed as age growth inhibition at 10 uM after 48 hrs by sulforhodamine B assay; type: functional; conditions: DU-145, 48 h, read-out: GI
HEp-2 [15] = experiment: Cytotoxicity against human HEP2 cells assessed as age growth inhibition at 10 uM after 48 hrs by sulforhodamine B assay; type: functional; conditions: HEp-2, 48 h, read-out: GI
DU-145 [16] = experiment: Antiproliferative activity against human DU145 cells after 48 hrs by sulforhodamine B assay; type: functional, cell-based; conditions: DU-145, 48 h
HCT-15 [17] = experiment: Cytotoxicity against human HCT15 cells assessed as age growth inhibition at 100 uM after 48 hrs by sulforhodamine B assay; type: functional; conditions: HCT-15, 48 h, read-out: GI
SK-OV-3 [18] = experiment: Antiproliferative activity against human SKOV3 cells after 48 hrs by sulforhodamine B assay; type: functional, cell-based; conditions: SK-OV-3, 48 h
IGROV-1 [19] = experiment: Cytotoxicity against human IGROV1 cells assessed as age growth inhibition at 100 uM after 48 hrs by sulforhodamine B assay; type: functional; conditions: IGROV-1, 48 h, read-out: GI
A549 [20] = experiment: Cytotoxicity against human A549 cells assessed as age growth inhibition at 50 uM after 48 hrs by sulforhodamine B assay; type: functional; conditions: A549, 48 h, read-out: GI
SF-295 [21] = experiment: Antiproliferative activity against human SF295 cells after 48 hrs by sulforhodamine B assay; type: functional, cell-based; conditions: SF-295, 48 h
COLO 205 [22] = experiment: Cytotoxicity against human COLO205 cells assessed as age growth inhibition at 100 uM after 48 hrs by sulforhodamine B assay; type: functional; conditions: COLO 205, 48 h, read-out: GI
HCT-15 [23] = experiment: Cytotoxicity against human HCT15 cells assessed as age growth inhibition at 10 uM after 48 hrs by sulforhodamine B assay; type: functional; conditions: HCT-15, 48 h, read-out: GI
IGROV-1 [24] = experiment: Cytotoxicity against human IGROV1 cells assessed as age growth inhibition at 50 uM after 48 hrs by sulforhodamine B assay; type: functional; conditions: IGROV-1, 48 h, read-out: GI
COLO 205 [25] = experiment: Cytotoxicity against human COLO205 cells assessed as age growth inhibition at 10 uM after 48 hrs by sulforhodamine B assay; type: functional; conditions: COLO 205, 48 h, read-out: GI
A549 [26] = experiment: Cytotoxicity against human A549 cells assessed as age growth inhibition at 100 uM after 48 hrs by sulforhodamine B assay; type: functional; conditions: A549, 48 h, read-out: GI
COLO 205 [27] = experiment: Antiproliferative activity against human COLO205 cells after 48 hrs by sulforhodamine B assay; type: functional, cell-based; conditions: COLO 205, 48 h
A549 [28] = experiment: Antiproliferative activity against human A549 cells after 48 hrs by sulforhodamine B assay; type: functional, cell-based; conditions: A549, 48 h
COLO 205 [29] = experiment: Cytotoxicity against human COLO205 cells assessed as age growth inhibition at 50 uM after 48 hrs by sulforhodamine B assay; type: functional; conditions: COLO 205, 48 h, read-out: GI
SK-OV-3 [30] = experiment: Cytotoxicity against human SKOV3 cells assessed as age growth inhibition at 100 uM after 48 hrs by sulforhodamine B assay; type: functional; conditions: SK-OV-3, 48 h, read-out: GI
SK-OV-3 [31] = experiment: Cytotoxicity against human SKOV3 cells assessed as age growth inhibition at 50 uM after 48 hrs by sulforhodamine B assay; type: functional; conditions: SK-OV-3, 48 h, read-out: GI
A549 [32] = experiment: Cytotoxicity against human A549 cells assessed as age growth inhibition at 10 uM after 48 hrs by sulforhodamine B assay; type: functional; conditions: A549, 48 h, read-out: GI
HOP-62 [33] = experiment: Antiproliferative activity against human HOP62 cells after 48 hrs by sulforhodamine B assay; type: functional, cell-based; conditions: HOP-62, 48 h
HEp-2 [34] = experiment: Cytotoxicity against human HEP2 cells assessed as age growth inhibition at 100 uM after 48 hrs by sulforhodamine B assay; type: functional; conditions: HEp-2, 48 h, read-out: GI
DU-145 [35] = experiment: Cytotoxicity against human DU145 cells assessed as age growth inhibition at 100 uM after 48 hrs by sulforhodamine B assay; type: functional; conditions: DU-145, 48 h, read-out: GI
IGROV-1 [36] = experiment: Cytotoxicity against human IGROV1 cells assessed as age growth inhibition at 10 uM after 48 hrs by sulforhodamine B assay; type: functional; conditions: IGROV-1, 48 h, read-out: GI

SMILES | inhibition of growth at 10 µM (HOP-62 [1]) [%] | inhibition of growth at 50 µM (HOP-62 [2]) [%] | inhibition of growth at 50 µM (SF-295 [3]) [%] | IC50 (IGROV-1 [4]) [µM] | inhibition of growth at 50 µM (DU-145 [5]) [%] | inhibition of growth at 100 µM (HOP-62 [6]) [%] | inhibition of growth at 50 µM (HEp-2 [7]) [%] | IC50 (HCT-15 [8]) [µM] | inhibition of growth at 10 µM (SK-OV-3 [9]) [%] | inhibition of growth at 100 µM (SF-295 [10]) [%] | inhibition of growth at 10 µM (SF-295 [11]) [%] | IC50 (HEp-2 [12]) [µM] | inhibition of growth at 50 µM (HCT-15 [13]) [%] | inhibition of growth at 10 µM (DU-145 [14]) [%] | inhibition of growth at 10 µM (HEp-2 [15]) [%] | IC50 (DU-145 [16]) [µM] | inhibition of growth at 100 µM (HCT-15 [17]) [%] | IC50 (SK-OV-3 [18]) [µM] | inhibition of growth at 100 µM (IGROV-1 [19]) [%] | inhibition of growth at 50 µM (A549 [20]) [%] | further results
CC1(C)CCC[C@@]2(C)C1=C[C@H]1C(=O)O[C@H](c3ccccc3)[C@H]12 | 16 | 21 | 18 | 83.7 | 32 | 28 | 18 | 75.3 | 20 | 22 | 15 | > 100 | 46 | 15 | 6 | 87.6 | 56 | 86.5 | 63 | 29 | IC50 (SF-295 [21]): > 100 µM; inhibition of growth at 100 µM (COLO 205 [22]): 79%; inhibition of growth at 10 µM (HCT-15 [23]): 9%; inhibition of growth at 50 µM (IGROV-1 [24]): 22%; inhibition of growth at 10 µM (COLO 205 [25]): 14%; inhibition of growth at 100 µM (A549 [26]): 51%; IC50 (COLO 205 [27]): 63.6 µM; IC50 (A549 [28]): 97.6 µM; inhibition of growth at 50 µM (COLO 205 [29]): 34%; inhibition of growth at 100 µM (SK-OV-3 [30]): 57%; inhibition of growth at 50 µM (SK-OV-3 [31]): 30%; inhibition of growth at 10 µM (A549 [32]): 11%; IC50 (HOP-62 [33]): > 100 µM; inhibition of growth at 100 µM (HEp-2 [34]): 37%; inhibition of growth at 100 µM (DU-145 [35]): 56%; inhibition of growth at 10 µM (IGROV-1 [36]): 0%
CC1(C)CCC[C@@]2(C)C1=C[C@H]1C(=O)O[C@H](c3ccco3)[C@H]12 | 2 | 8 | 17 | 79.2 | 37 | 46 | 19 | 50 | 6 | 38 | 0 | 98.8 | 50 | 17 | 8 | 63.3 | 56 | 91 | 67 | 20 | IC50 (SF-295 [21]): > 100 µM; inhibition of growth at 100 µM (COLO 205 [22]): 64%; inhibition of growth at 10 µM (HCT-15 [23]): 14%; inhibition of growth at 50 µM (IGROV-1 [24]): 24%; inhibition of growth at 10 µM (COLO 205 [25]): 16%; inhibition of growth at 100 µM (A549 [26]): 25%; IC50 (COLO 205 [27]): 79.5 µM; IC50 (A549 [28]): > 100 µM; inhibition of growth at 50 µM (COLO 205 [29]): 20%; inhibition of growth at 100 µM (SK-OV-3 [30]): 57%; inhibition of growth at 50 µM (SK-OV-3 [31]): 9%; inhibition of growth at 10 µM (A549 [32]): 19%; IC50 (HOP-62 [33]): > 100 µM; inhibition of growth at 100 µM (HEp-2 [34]): 52%; inhibition of growth at 100 µM (DU-145 [35]): 76%; inhibition of growth at 10 µM (IGROV-1 [36]): 1%
Cc1ccc([C@H]2OC(=O)[C@@H]3C=C4C(C)(C)CCC[C@]4(C)[C@H]23)cc1 | 2 | 13 | 20 | > 100 | 10 | 21 | 25 | 78 | 19 | 21 | 19 | > 100 | 44 | 6 | 9 | > 100 | 55 | > 100 | 40 | 29 | IC50 (SF-295 [21]): > 100 µM; inhibition of growth at 100 µM (COLO 205 [22]): 34%; inhibition of growth at 10 µM (HCT-15 [23]): 11%; inhibition of growth at 50 µM (IGROV-1 [24]): 29%; inhibition of growth at 10 µM (COLO 205 [25]): 10%; inhibition of growth at 100 µM (A549 [26]): 42%; IC50 (COLO 205 [27]): > 100 µM; IC50 (A549 [28]): > 100 µM; inhibition of growth at 50 µM (COLO 205 [29]): 22%; inhibition of growth at 100 µM (SK-OV-3 [30]): 30%; inhibition of growth at 50 µM (SK-OV-3 [31]): 29%; inhibition of growth at 10 µM (A549 [32]): 13%; IC50 (HOP-62 [33]): > 100 µM; inhibition of growth at 100 µM (HEp-2 [34]): 27%; inhibition of growth at 100 µM (DU-145 [35]): 35%; inhibition of growth at 10 µM (IGROV-1 [36]): 0%
